This note sets out measurements from ChEMBL document CHEMBL5465560, “Selectivity Literature for EUbOPEN Chemogenomic Library” (2024).

Assay [1] deals with Mitogen-activated protein kinase 6 (Homo sapiens) (UniProt Q16659). Kind of assay: Selectivity interaction (Ambit KINOMEscan and KiNATiv profiling in Jurkat cells) EUB0000090b MAPK6. The assay is classed as cell-based. The note with it: at 1 µM.
Assay [2] deals with Activin receptor type-1-like (Homo sapiens) (UniProt P37023). To be noted: at 10 µM.
Sequence of Activin receptor type-1-like (Homo sapiens) (P37023 whole entry, canonical isoform): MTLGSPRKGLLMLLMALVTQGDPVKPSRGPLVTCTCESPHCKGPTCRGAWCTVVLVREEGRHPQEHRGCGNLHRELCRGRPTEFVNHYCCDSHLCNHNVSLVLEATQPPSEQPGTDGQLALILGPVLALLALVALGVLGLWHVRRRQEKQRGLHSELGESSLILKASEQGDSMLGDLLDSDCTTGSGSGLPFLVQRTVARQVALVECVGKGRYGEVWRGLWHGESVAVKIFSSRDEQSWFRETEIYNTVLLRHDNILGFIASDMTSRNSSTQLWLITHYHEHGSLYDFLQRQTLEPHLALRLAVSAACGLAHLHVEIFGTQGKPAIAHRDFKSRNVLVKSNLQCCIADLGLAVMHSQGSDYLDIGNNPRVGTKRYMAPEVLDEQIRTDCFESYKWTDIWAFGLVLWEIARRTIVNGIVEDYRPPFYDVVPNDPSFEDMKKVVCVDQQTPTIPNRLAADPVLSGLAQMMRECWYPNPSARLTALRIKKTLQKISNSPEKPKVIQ
The target in assay [3] is Casein kinase I isoform gamma-1 (Homo sapiens) (UniProt Q9HCP0). Kind of assay: Selectivity interaction (KinomeScan (DiscoverX)) EUB0000092b CSNK1G1. To be noted: at 10 µM.
The target in assay [4] is T1, Mitogen-activated protein kinase kinase kinase kinase 3 (Homo sapiens) (UniProt Q8IVH8).
T1 sequence (whole entry): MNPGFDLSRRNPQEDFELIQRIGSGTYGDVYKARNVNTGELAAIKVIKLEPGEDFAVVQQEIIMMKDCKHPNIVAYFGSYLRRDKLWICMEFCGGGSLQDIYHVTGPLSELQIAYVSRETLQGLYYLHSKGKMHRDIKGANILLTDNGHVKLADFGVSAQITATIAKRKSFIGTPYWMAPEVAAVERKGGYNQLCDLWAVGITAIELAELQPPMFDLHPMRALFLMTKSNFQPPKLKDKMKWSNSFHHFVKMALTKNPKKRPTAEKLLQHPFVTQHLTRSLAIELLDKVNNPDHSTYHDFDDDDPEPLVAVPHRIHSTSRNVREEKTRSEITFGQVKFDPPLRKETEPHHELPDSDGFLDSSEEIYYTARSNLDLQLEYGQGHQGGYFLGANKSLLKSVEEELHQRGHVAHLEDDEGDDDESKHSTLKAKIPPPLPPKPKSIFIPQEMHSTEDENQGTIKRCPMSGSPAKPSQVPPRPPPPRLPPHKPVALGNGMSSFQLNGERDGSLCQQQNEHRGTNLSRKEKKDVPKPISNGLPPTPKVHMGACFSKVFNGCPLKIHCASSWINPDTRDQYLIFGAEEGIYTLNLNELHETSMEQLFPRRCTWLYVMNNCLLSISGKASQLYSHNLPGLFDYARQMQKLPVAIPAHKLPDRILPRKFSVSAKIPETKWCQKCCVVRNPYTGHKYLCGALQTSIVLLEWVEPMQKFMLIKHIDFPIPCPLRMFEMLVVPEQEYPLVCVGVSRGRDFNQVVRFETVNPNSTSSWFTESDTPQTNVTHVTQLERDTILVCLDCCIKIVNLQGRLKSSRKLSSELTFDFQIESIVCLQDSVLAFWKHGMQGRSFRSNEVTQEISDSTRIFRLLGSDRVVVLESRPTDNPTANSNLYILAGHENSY
Kind of assay: Selectivity interaction (KinomeScan (DiscoverX)) EUB0000695a MAP4K3. The note with it: at 100 nM.

The target of assay [5] is T2, Serine/threonine-protein kinase Sgk2 (Homo sapiens) (UniProt Q9HBY8).
T2 sequence (whole entry): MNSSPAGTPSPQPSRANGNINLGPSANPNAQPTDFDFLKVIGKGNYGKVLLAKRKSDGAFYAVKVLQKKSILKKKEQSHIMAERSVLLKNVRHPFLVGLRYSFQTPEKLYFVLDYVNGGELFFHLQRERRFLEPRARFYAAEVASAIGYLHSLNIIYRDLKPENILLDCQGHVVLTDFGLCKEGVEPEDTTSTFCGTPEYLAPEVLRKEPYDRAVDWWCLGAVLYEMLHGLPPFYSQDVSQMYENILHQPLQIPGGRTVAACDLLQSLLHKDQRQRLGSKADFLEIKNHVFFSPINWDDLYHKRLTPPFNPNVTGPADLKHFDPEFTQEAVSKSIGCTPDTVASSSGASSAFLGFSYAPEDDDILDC
Kind of assay: Selectivity interaction (KinomeScan (DiscoverX)) EUB0000695a SGK2. The note with it: at 100 nM.

The target of assay [6] is Transcription initiation factor TFIID subunit 1 (Homo sapiens) (UniProt P21675). Put plainly: Selectivity interaction (Bromodomain panel (DSF asssay)) EUB0000270b TAF1.
Sequence of Transcription initiation factor TFIID subunit 1 (Homo sapiens) (P21675 whole entry): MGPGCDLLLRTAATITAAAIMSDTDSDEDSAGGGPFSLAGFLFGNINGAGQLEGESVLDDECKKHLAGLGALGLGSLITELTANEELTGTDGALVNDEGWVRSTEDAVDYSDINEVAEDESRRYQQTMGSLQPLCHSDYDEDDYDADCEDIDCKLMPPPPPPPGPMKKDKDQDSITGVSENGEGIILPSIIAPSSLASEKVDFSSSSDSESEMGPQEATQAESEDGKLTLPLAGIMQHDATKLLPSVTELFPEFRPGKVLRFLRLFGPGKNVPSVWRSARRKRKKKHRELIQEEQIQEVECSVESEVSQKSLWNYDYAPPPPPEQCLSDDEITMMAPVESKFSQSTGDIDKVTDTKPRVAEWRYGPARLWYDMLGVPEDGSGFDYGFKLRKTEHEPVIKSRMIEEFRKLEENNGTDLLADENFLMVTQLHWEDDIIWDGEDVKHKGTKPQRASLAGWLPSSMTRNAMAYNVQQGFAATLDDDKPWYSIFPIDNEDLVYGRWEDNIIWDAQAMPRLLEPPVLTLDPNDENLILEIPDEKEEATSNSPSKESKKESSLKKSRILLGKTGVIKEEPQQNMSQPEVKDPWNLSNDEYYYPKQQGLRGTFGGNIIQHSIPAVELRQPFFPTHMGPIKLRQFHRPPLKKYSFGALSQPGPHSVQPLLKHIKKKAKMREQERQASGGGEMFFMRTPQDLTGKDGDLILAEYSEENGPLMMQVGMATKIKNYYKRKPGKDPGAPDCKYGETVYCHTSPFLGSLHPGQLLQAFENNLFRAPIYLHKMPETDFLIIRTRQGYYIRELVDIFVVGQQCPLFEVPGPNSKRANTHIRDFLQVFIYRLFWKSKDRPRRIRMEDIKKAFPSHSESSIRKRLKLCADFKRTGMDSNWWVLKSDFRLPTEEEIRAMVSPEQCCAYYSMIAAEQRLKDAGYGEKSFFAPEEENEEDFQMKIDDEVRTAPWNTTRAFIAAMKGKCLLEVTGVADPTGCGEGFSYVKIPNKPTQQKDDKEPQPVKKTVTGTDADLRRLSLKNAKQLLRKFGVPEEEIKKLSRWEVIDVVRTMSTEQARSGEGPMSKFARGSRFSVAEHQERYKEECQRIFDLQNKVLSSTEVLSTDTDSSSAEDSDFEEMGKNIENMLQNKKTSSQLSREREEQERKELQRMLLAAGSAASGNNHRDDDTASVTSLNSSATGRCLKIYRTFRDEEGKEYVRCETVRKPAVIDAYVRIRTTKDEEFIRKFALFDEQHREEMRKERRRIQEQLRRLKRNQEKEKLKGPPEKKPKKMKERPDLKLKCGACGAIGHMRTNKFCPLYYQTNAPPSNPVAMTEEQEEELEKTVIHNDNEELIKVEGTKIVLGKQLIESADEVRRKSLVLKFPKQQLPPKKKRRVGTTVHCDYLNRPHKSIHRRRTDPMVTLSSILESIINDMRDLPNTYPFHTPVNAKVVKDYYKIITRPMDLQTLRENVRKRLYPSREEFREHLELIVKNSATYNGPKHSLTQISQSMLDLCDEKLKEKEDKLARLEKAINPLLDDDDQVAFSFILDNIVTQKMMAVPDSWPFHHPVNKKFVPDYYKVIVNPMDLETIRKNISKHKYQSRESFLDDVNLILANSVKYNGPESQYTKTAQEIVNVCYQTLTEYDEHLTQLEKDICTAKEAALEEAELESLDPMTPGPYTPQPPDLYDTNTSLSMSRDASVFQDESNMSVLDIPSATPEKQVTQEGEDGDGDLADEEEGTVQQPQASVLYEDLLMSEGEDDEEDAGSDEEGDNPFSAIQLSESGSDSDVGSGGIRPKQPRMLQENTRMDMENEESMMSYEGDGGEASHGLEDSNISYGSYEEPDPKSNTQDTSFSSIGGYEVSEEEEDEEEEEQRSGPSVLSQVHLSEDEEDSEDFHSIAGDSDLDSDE
For assay [7], the target named is T3, SNF-related serine/threonine-protein kinase (Homo sapiens) (UniProt Q9NRH2).
T3 sequence (whole entry): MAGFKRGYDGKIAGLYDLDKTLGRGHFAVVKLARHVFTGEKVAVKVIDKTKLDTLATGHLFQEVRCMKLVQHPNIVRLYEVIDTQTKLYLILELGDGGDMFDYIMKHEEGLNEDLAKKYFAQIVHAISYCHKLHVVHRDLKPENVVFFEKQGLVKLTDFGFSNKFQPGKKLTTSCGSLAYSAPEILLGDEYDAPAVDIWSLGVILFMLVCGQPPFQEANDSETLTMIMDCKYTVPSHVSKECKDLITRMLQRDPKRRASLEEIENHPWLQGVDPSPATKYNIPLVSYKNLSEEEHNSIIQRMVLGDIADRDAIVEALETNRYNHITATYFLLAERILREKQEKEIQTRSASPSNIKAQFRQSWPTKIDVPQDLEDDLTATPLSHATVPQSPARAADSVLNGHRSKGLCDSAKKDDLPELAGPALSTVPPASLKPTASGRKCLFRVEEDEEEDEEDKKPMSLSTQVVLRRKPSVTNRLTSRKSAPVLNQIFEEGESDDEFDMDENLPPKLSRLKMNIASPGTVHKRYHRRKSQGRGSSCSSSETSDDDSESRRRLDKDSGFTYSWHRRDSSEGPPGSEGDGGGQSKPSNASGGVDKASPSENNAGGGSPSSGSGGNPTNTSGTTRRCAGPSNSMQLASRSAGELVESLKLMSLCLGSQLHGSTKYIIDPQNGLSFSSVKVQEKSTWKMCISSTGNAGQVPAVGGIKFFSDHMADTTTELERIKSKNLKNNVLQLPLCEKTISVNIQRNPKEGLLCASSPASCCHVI
Kind of assay: Selectivity interaction (ActivX KiNativ screen (kinase selectivity in THP-1 cell lysates)) EUB0000639a SNRK. The assay is classed as subcellular. To be noted: lysate, at 0.01 µM.

Assay [8] addresses Ribosomal protein S6 kinase alpha-1 (Homo sapiens, UniProt Q15418). Put plainly: Selectivity interaction (KinomeScan (DiscoverX)) EUB0000595a RPS6KA1. To be noted: at 10 µM.
The target in assay [9] is Serine/threonine-protein kinase Chk2 (Homo sapiens) (UniProt O96017). Put plainly: Selectivity interaction (KinomeScan (DiscoverX)) EUB0000595a CHEK2. To be noted: at 10 µM.
Sequence of Serine/threonine-protein kinase Chk2 (Homo sapiens) (O96017 whole entry): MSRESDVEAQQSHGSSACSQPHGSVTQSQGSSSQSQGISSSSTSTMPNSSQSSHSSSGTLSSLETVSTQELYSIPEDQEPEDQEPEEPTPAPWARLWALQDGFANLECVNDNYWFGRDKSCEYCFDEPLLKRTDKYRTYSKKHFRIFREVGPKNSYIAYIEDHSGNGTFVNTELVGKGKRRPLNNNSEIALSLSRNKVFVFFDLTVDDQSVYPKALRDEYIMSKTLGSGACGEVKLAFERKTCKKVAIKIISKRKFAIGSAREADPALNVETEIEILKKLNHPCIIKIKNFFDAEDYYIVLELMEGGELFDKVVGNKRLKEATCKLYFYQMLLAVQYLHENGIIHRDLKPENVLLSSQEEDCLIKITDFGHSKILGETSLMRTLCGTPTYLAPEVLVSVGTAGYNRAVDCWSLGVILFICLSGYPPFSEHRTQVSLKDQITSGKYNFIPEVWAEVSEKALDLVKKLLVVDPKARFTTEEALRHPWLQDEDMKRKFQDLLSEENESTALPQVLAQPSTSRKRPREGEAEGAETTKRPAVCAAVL
For assay [10], the target named is STE20-like serine/threonine-protein kinase (Homo sapiens, UniProt Q9H2G2). Put plainly: Selectivity interaction (KinomeScan (DiscoverX)) EUB0000618a SLK. The note with it: at 10 µM.
Sequence of STE20-like serine/threonine-protein kinase (Q9H2G2 whole entry, looked up): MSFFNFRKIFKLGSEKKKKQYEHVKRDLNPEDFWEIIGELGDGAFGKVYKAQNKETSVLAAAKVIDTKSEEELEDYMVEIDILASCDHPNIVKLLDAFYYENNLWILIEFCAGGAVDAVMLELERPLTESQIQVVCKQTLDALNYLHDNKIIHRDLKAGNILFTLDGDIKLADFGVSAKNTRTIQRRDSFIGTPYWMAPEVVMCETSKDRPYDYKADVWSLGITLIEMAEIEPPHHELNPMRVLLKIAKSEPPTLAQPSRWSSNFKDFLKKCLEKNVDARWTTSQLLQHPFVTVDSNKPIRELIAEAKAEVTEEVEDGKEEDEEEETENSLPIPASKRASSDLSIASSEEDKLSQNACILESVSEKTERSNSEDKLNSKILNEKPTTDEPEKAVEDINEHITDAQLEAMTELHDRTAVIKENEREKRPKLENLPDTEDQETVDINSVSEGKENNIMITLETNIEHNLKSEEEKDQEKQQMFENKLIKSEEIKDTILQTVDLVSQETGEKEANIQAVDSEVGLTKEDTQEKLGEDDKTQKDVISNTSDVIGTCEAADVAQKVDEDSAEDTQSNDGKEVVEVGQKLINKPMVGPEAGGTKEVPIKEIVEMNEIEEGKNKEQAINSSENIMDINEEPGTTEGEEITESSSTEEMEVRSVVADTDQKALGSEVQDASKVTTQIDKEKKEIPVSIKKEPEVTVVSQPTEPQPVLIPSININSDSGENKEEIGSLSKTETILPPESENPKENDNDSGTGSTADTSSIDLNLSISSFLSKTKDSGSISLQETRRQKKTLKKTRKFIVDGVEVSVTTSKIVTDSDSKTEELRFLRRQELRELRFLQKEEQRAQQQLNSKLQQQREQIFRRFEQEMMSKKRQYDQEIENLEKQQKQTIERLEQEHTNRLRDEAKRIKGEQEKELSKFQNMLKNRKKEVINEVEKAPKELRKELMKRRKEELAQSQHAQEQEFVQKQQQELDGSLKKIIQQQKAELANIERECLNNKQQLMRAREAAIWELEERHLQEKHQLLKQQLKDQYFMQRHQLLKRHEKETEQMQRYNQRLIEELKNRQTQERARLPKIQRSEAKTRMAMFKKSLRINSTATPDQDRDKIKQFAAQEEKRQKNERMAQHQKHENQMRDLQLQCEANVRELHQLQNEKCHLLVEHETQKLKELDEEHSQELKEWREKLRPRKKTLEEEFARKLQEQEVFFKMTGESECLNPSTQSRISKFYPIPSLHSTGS

Sequence of Mitogen-activated protein kinase 6 (Homo sapiens) (Q16659 whole entry): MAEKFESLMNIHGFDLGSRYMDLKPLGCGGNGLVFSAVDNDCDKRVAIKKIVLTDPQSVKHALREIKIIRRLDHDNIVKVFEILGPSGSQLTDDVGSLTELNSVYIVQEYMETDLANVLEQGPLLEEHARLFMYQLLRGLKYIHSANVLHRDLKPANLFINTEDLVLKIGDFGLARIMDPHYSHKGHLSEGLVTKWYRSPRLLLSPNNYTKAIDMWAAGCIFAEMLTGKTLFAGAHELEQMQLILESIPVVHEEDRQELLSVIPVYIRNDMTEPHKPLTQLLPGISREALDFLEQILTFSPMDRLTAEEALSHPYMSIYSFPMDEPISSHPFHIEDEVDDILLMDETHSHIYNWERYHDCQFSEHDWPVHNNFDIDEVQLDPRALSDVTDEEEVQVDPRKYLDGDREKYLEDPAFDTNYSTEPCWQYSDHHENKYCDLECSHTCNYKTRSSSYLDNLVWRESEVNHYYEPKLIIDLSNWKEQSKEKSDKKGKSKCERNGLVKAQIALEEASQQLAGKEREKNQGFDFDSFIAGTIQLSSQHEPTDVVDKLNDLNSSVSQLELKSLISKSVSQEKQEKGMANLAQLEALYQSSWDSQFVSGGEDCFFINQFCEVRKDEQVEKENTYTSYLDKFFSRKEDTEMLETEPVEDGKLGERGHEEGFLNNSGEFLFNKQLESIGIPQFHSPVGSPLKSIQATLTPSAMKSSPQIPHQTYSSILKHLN

Take `CN(C)C/C=C/C(=O)Nc1ccc(C(=O)N2CCCC(Nc3ncc(Cl)c(-c4c[nH]c5ccccc45)n3)C2)cc1` (stereo not given): the % of control in [1] turned out to be 40%.

Regarding `CCN(CC)CCCCNc1ncc2cc(-c3cc(OC)cc(OC)c3)c(NC(=O)NC(C)(C)C)nc2n1`, the % of control in assay [2] worked out at 100%.

For the compound `CCC(=O)N1CCN(c2ccc(-n3c(=O)ccc4cnc5ccc(-c6cnc7ccccc7c6)cc5c43)cc2C(F)(F)F)CC1`, the % of control in [3] was 100%.

As to `Cc1cc(F)c(C(=O)Nc2cccc(-c3nncn3C(C)C)n2)cc1-n1cnc(C2CC2)c1`, the % of control in assay [4] stood at 70%; in assay [5], 100%.

In the case of `Cc1cc(CN)cc(C)c1-c1ncn(C)c1-c1cncn1C`, the dTM in assay [6] is -1.17 K.

The compound `CC[C@@H]1[C@H](F)C(=O)N[C@@H]1COc1nccc2cc(C(N)=O)c(OC)cc12` [ZIMLOVISERTIB] yielded a % of inhibition in [7] of 0.6%.

On to `COCC(=O)NC/C=C/c1ccc2ncnc(Nc3ccc(Oc4ccc(C)nc4)c(C)c3)c2c1` [CP-724714], for which the % of control in [8] came to 73%; in [9], 55%.

In assay [10], `O[C@H]1CC[C@H](Nc2ncc3nc(Nc4c(F)cc(F)cc4F)n([C@H]4CCOC4)c3n2)CC1` displayed a % of control of 88%.
